For orientation: ED50 means the dose that gives a 50% effect, or the effect in half of the subjects.

Molecules are shown by their SMILES. Counter-ions that a name gives are not always drawn. A value given as a limit tells only on which side of the number the result lay.

This note sets out measurements from patent publication US4182896A, “Indane derivatives” (Societe Hexachimie, priority 1974, dated 1980).

Assay [1] relates to SPF male rats, OFA strain. As to the kind of experiment: Anti-inflammatory activity: paw swelling after subcutaneous plantar injection of carraghenine, oral administration. It counts as in vivo. To be noted: for inhibition in vivo at 16 mg/kg: 16 mg/kg oral; for ED50: read-out: ED50 (50% effective dose), anti-inflammatory; for inhibition in vivo at 512 mg/kg: 512 mg/kg oral. The procedure:
Anti-inflammatory activity
The products to be tested are administered orally to batches of 12 SPF male rats, OFA strain, weighing 120-130 g, 2 hours and 30 minutes (1/2 dose each time) before the subcutaneous plantar injection of 0.05 ml of a 1% strength solution of carraghenine. The volume of the back paw which received the phlogogenic agent is measured at regular intervals. The 50% effective dose is calculated at the moment of greatest swelling of the controls.
The results are given in Tables I to IV below, in which the percentage reduction in the inflammation is noted.

The test system of assay [2] is male mice (SPF1, OF1 strain). Nature of the assay: Analgesic activity: inhibition of pain reactions (abdominal twistings) after intraperitoneal phenylbenzoquinone, oral administration. The class given is in vivo. To be noted: for inhibition in vivo at 8 mg/kg / inhibition in vivo at 16 mg/kg / inhibition in vivo at 32 mg/kg / inhibition in vivo at 64 mg/kg / ED50 / inhibition in vivo at 128 mg/kg / inhibition in vivo at 256 mg/kg / inhibition in vivo at 512 mg/kg: Mus musculus, po; for inhibition in vivo at 8 mg/kg: 8 mg/kg oral; for inhibition in vivo at 8 mg/kg / inhibition in vivo at 16 mg/kg / inhibition in vivo at 32 mg/kg / inhibition in vivo at 64 mg/kg / inhibition in vivo at 128 mg/kg / inhibition in vivo at 256 mg/kg / inhibition in vivo at 512 mg/kg: read-out: percentage inhibition of pain reactions; for inhibition in vivo at 16 mg/kg: 16 mg/kg oral; for inhibition in vivo at 32 mg/kg: 32 mg/kg oral; for inhibition in vivo at 64 mg/kg: 64 mg/kg oral; for ED50: read-out: ED50 (50% effective dose), analgesic; for inhibition in vivo at 256 mg/kg: 256 mg/kg oral; for inhibition in vivo at 512 mg/kg: 512 mg/kg oral. As to the method:
The products tested are administered orally to batches of 6 male mice (SPF1, OF1 strain) weighing 19-20 g.
1 hour later, 0.3 ml of a 0.02% strength solution of phenylbenzoquinone is injected intraperitoneally into each mouse and, from the 5th to the 10th minute after the latter treatment, the number of pain reactions (abdominal twistings) is counted.
Table V to VIII below give the percentage inhibition of these reactions.

Setting [3] is: Rattus norvegicus, po, carraghenine, read-out: percentage reduction in the inflammation.
[4] abbreviates: Rattus norvegicus, po, 32 mg/kg oral, carraghenine, read-out: percentage reduction in the inflammation.
Where [5] appears, read: Rattus norvegicus, po, 64 mg/kg oral, carraghenine, read-out: percentage reduction in the inflammation.
The mark [6] stands for this setting: Rattus norvegicus, po, 128 mg/kg oral, carraghenine, read-out: percentage reduction in the inflammation.
Setting [7] is: Rattus norvegicus, po, 256 mg/kg oral, carraghenine, read-out: percentage reduction in the inflammation.
[8] abbreviates: Rattus norvegicus, po, at the moment of greatest swelling of the controls.

As to `CC(C(=O)O)c1ccc2c(c1)CC(C)(C)C2` (stereo not shown) [Example 16, 2-Methyl-[2,2-dimethyl-indanyl-(5)]-acetic acid], the inhibition in vivo at 16 mg/kg in assay [1] (setting [3]) was found to be 4%. Besides, the inhibition in vivo at 32 mg/kg in assay [1] (setting [4]) came to 20%. The inhibition in vivo at 64 mg/kg in assay [1] (setting [5]) is 37%. Moreover, the inhibition in vivo at 128 mg/kg in assay [1] (setting [6]) amounted to 61%. The inhibition in vivo at 256 mg/kg in assay [1] (setting [7]) amounted to 94%. Moreover, the median effective dose (ED50) in assay [1] (setting [8]) amounted to 73 mg/kg. Moreover, in assay [2], the inhibition in vivo at 8 mg/kg is 13%, the inhibition in vivo at 16 mg/kg was 30%, the inhibition in vivo at 32 mg/kg came out at 77% and the inhibition in vivo at 64 mg/kg came out at 96%. Besides, the median effective dose (ED50) in assay [2] was 19 mg/kg.
Consider `CC1(C)Cc2ccc(CC(=O)OCCN3CCOCC3)cc2C1` [Example 23, Hydrochloride of the morpholino-ethyl ester of [2,2-dimethyl-indanyl-(5)]-acetic acid], for which the inhibition in vivo at 32 mg/kg in assay [1] (setting [4]) was determined as 9%; in assay [2] it was 36%. Further, the inhibition in vivo at 64 mg/kg in assay [1] (setting [5]) came out at 30%; in assay [2], 82%. Besides, the results for the inhibition in vivo at 128 mg/kg in assay [1] (setting [6]) and in assay [2] (128 mg/kg oral) were 50% and 45%, respectively. Besides, the inhibition in vivo at 256 mg/kg was determined as 55% in assay [1] (setting [7]) and 45% in assay [2]. Also, the inhibition in vivo at 512 mg/kg in assay [1] (setting [3]) amounted to 90%. Besides, the ED50 in assay [1] (setting [8]) was 140 mg/kg. Besides, in assay [2], the inhibition in vivo at 8 mg/kg came to 1%. Besides, the inhibition in vivo at 16 mg/kg in assay [2] was 20%.
`CC(C(=O)OCCN1CCOCC1)c1ccc2c(c1)CC(C)(C)C2` (stereo not shown) [Example 24, Hydrochloride of the morpholino-ethyl ester of 2-methyl-[2,2-dimethyl-indanyl-(5)]-acetic acid]: the figures for the inhibition in vivo at 16 mg/kg in assay [1] (setting [3]) and in assay [2] were 7% and 24%, respectively. In addition, the figures for the inhibition in vivo at 32 mg/kg in assay [1] (setting [4]) and in assay [2] were 21% and 32%, respectively. For the same compound, the figures for the inhibition in vivo at 64 mg/kg in assay [1] (setting [5]) and in assay [2] were 36% and 53%, respectively. The inhibition in vivo at 128 mg/kg in assay [1] (setting [6]) amounted to 50%; in assay [2] (128 mg/kg oral) it was 97%. For the same compound, the inhibition in vivo at 256 mg/kg in assay [1] (setting [7]) stood at 57%. In assay [1] (setting [3]), the inhibition in vivo at 512 mg/kg amounted to 73%. For the same compound, the 50% effective dose (ED50) in assay [1] (setting [8]) is 142 mg/kg; in assay [2], 35 mg/kg. Besides, in assay [2], the inhibition in vivo at 8 mg/kg was 0%.
On to `CC(C(=O)OCCN1CCOCC1)c1ccc2c(c1)CC(C1CCCCC1)C2` (stereo not shown) [Example 25, Hydrochloride of the morpholino-ethyl ester of 2-methyl-[2-cyclohexyl-indanyl-(5)]-acetic acid], for which, in assay [1] (setting [3]), the inhibition in vivo at 16 mg/kg came out at 26%. Besides, the results for the inhibition in vivo at 32 mg/kg in assay [1] (setting [4]) and in assay [2] were 28% and 19%, respectively. In addition, the inhibition in vivo at 64 mg/kg in assay [1] (setting [5]) turned out to be 7%; in assay [2], 50%. Besides, the inhibition in vivo at 128 mg/kg is 12% in assay [1] (setting [6]) and 64% in assay [2] (128 mg/kg oral). In addition, the inhibition in vivo at 256 mg/kg in assay [1] (setting [7]) was 10%. Besides, the ED50 in assay [1] (setting [8]) is more than 256 mg/kg; in assay [2] it was 80 mg/kg.
In the case of `CCC(C(=O)O)c1ccc2c(c1)CC(C(C)C)C2` (stereo not shown) [Example 17, 2-Ethyl-[2-isopropyl-indanyl-(5)]-acetic acid], the “percentage reduction in the inflammation” value in assay [1] (32 mg/kg oral, rat, carraghenine) is given as 24%; in assay [1] (64 mg/kg oral, rat, carraghenine), 30%; in assay [1] (128 mg/kg oral, rat, carraghenine), 38%; in assay [1] (256 mg/kg oral, rat, carraghenine), 43%. The inhibition in vivo at 16 mg/kg in assay [1] (setting [3]) came out at 13%. Further, the “ED50 (50% effective dose), anti-inflammatory” value in assay [1] (oral, rat, at the moment of greatest swelling of the controls) is more than 256 mg/kg. Also, the “percentage inhibition of pain reactions” value in assay [2] (128 mg/kg oral, mouse) is 70%. In assay [2], the inhibition in vivo at 64 mg/kg came to 28%. Further, the inhibition in vivo at 256 mg/kg in assay [2] came to 83%. The inhibition in vivo at 512 mg/kg in assay [2] worked out at 100%. For the same compound, the “ED50 (50% effective dose), analgesic” value in assay [2] (oral, mouse) amounted to 100 mg/kg.
Take `CC(C(=O)O)c1ccc2c(c1)CC(C1CCCCC1)C2` (stereo not shown) [Example 14, 2-Methyl-[2-cyclohexyl-indanyl-(5)]-acetic acid]: the inhibition in vivo at 16 mg/kg in assay [1] (setting [3]) stood at 11%. Further, the inhibition in vivo at 32 mg/kg was determined as 5% in assay [1] (setting [4]) and 20% in assay [2]. The inhibition in vivo at 64 mg/kg came out at 16% in assay [1] (setting [5]) and 35% in assay [2]. In addition, the inhibition in vivo at 128 mg/kg in assay [1] (setting [6]) is 17%; in assay [2] (128 mg/kg oral), 52%. Moreover, the values for the inhibition in vivo at 256 mg/kg in assay [1] (setting [7]) and in assay [2] were 31% and 62%, respectively. Further, the inhibition in vivo at 512 mg/kg in assay [1] (setting [3]) worked out at 34%; in assay [2], 93%. The results for the 50% effective dose (ED50) in assay [1] (setting [8]) and in assay [2] were more than 512 mg/kg and 110 mg/kg, respectively.
`CCC1Cc2ccc(C(C)C(=O)OCCN3CCOCC3)cc2C1` (stereo not shown) [Example 26, Oxalate of the morpholino-ethyl ester of 2-methyl-[2-ethyl-indanyl-(5)]-acetic acid]: the inhibition in vivo at 16 mg/kg in assay [1] (setting [3]) came to 38%; in assay [2] it was 52%. The inhibition in vivo at 32 mg/kg was 47% in assay [1] (setting [4]) and 69% in assay [2]. For the same compound, the figures for the inhibition in vivo at 64 mg/kg in assay [1] (setting [5]) and in assay [2] were 54% and 94%, respectively. Besides, the inhibition in vivo at 128 mg/kg in assay [1] (setting [6]) was determined as 68%. Moreover, the inhibition in vivo at 256 mg/kg in assay [1] (setting [7]) came out at 70%. In addition, the results for the ED50 in assay [1] (setting [8]) and in assay [2] were 40 mg/kg and 18 mg/kg, respectively. The inhibition in vivo at 8 mg/kg in assay [2] was 17%.
Regarding `CCC1Cc2ccc(C(C)CO)cc2C1` (stereo not drawn) [Example 34, 2-Methyl-β-[2-ethyl-indanyl-(5)]-ethanol], in assay [1] (setting [3]), the inhibition in vivo at 16 mg/kg was found to be 46%. In addition, the figures for the inhibition in vivo at 32 mg/kg in assay [1] (setting [4]) and in assay [2] were 42% and 12%, respectively. Also, the figures for the inhibition in vivo at 64 mg/kg in assay [1] (setting [5]) and in assay [2] were 51% and 22%, respectively. Moreover, the inhibition in vivo at 128 mg/kg in assay [1] (setting [6]) and in assay [2] (128 mg/kg oral) was 60% each time. The inhibition in vivo at 256 mg/kg in assay [1] (setting [7]) is 61%; in assay [2], 94%. For the same compound, the 50% effective dose (ED50) in assay [1] (setting [8]) stood at 50 mg/kg; in assay [2] it was 95 mg/kg.
For `CC(C(=O)OCCN(C)C)c1ccc2c(c1)CC(C(C)C)C2` (stereo not shown) [Example 27, Hydrochloride of the dimethylaminoethyl ester of 2-methyl-[2-isopropyl-indanyl-(5)]-acetic acid], the inhibition in vivo at 4 mg/kg in assay [1] (Rattus norvegicus, po, 4 mg/kg oral, carraghenine, read-out: percentage reduction in the inflammation) is 29%. Besides, the inhibition in vivo at 16 mg/kg in assay [1] (setting [3]) was determined as 54%. Moreover, the inhibition in vivo at 64 mg/kg in assay [1] (setting [5]) came out at 61%. Besides, the inhibition in vivo at 128 mg/kg in assay [1] (setting [6]) was found to be 64%. Further, the inhibition in vivo at 256 mg/kg in assay [1] (setting [7]) stood at 76%. Further, the ED50 in assay [1] (setting [8]) is 22 mg/kg. In addition, in assay [2], the inhibition in vivo at 8 mg/kg worked out at 7%, the inhibition in vivo at 16 mg/kg was found to be 42%, the inhibition in vivo at 32 mg/kg amounted to 69% and the inhibition in vivo at 64 mg/kg was 94%. The inhibition in vivo at 128 mg/kg in assay [2] (128 mg/kg oral) is 99%.
Take `O=C(O)Cc1ccc2c(c1)CCC2C1CCCCC1` (stereo not shown) [Example 5, [1-Cyclohexyl-indanyl-(5)]-acetic acid]: in assay [2], the inhibition in vivo at 64 mg/kg is 32%, the inhibition in vivo at 256 mg/kg is 58% and the ED50 is approximately 150 mg/kg.
